Measured values as given in paper PMC12867150, “A fungi-derived cyclic peptide enhances Th9-mediated antitumor immunity by targeting ZAP70 and SREBP1” (The Journal of Clinical Investigation, 2025).
“And” between values parts separate entries of the source, which are not always exact repeats. Identical values can stand only once.

Key:
Th9 cells [1] = test: Screening of 65 natural compounds for IL-9 production by Th9 cells (Figure 1B); assay type: cell-based, mouse; conditions: 10 μM; result in words
From the text: To identify natural small molecules that enhance the antitumor potential of Th9 cells, we constructed a chemically and structurally defined small-molecule library derived from endophytic fungi isolated from G. lucidum and Periplaneta americana (Supplemental Table 1; supplemental material available online with this article; https://doi.org/10.1172/JCI196907DS1). This library comprised 65 structurally diverse metabolites classified into 11 distinct scaffold families, with each compound structurally elucidated via NMR spectroscopy and verified against previously reported spectral data. To functionally evaluate the immunomodulatory potential of these compounds, we systematically screened the library for their ability to promote Th9 cell differentiation, assessed by intracellular IL-9 expression using flow cytometry (Figure 1, A and B).
Naive CD4^+ T cells were isolated from the spleens of C57BL/6J or CD45.1^+ OT-II mice using the MojoSort Mouse CD4 Naive T Cell Isolation Kit (BioLegend, catalog 480040), following the manufacturer’s protocol. Purified cells were cultured in RPMI-1640 medium supplemented with 10% FBS, 1% penicillin-streptomycin, and 0.1% β-mercaptoethanol (Gibco, catalog 21985023). […]

Th9 cells [2] = test: Th9 differentiation, dose response, IL-9+ cells by flow cytometry (Figure 1D); assay type: cell-based, mouse; set-up: IL-9+ Th9 differentiation: unit not given here; conditions: for IL-9+ Th9 differentiation: flow cytometry, individual replicates, n = 6
Procedure: IL-9 expression peaked at 10 μM, which was used for all subsequent experiments (Figure 1D).
Naive CD4^+ T cells were isolated from the spleens of C57BL/6J or CD45.1^+ OT-II mice using the MojoSort Mouse CD4 Naive T Cell Isolation Kit (BioLegend, catalog 480040), following the manufacturer’s protocol. Purified cells were cultured in RPMI-1640 medium supplemented with 10% FBS, 1% penicillin-streptomycin, and 0.1% β-mercaptoethanol (Gibco, catalog 21985023).
T cell polarization was initiated under plate-bound anti-CD3 (2 μg/mL, clone 17A2, BioXCell, catalog BE0002) and soluble anti-CD28 (1 μg/mL, clone 37.51, BioXCell, catalog BE0015-1) stimulation, with the addition of cytokines and neutralizing antibodies specific to each subset. For Th9 cells, these included IL-4 (10 ng/mL, Peprotech, catalog 400-04), TGF-β (1 ng/mL, EPOTO Biotech, catalog HF-2021), anti–IL-12 (5 μg/mL, clone C17.8, BioXCell, catalog BE0051), and anti–IFN-γ (10 μg/mL, clone XMG1.2, BioXCell, catalog BE0055); for Th1 cells, these included IL-12 (10 ng/mL, GenScript, catalog Z03211-50) and anti–IL-4 (5 μg/mL, clone 11B11, BioXCell, catalog BE0045); for Th2 cells, these included IL-4 (50 ng/mL), anti–IFN-γ (20 μg /mL), anti–IL-12 (5 μg/mL), Th17 cells: IL-6 (20 ng/mL, EPOTO Biotech, catalog MF-1006), TGF-β (1 ng/mL), IL-1β (10 ng/mL, Peprotech, catalog AF-211-11B), anti–IFN-γ (10 μg/mL), anti–IL-12 (5 μg/mL), and anti–IL-4 (5 μg/mL); and for Tregs, these included TGF-β (3 ng/mL). After 3 days of initial culture, cells were either collected for downstream assays or continued in extended culture with refreshed cytokines to maintain lineage commitment.
During the entire culture period, experimental groups were treated continuously with the indicated compound at the designated concentration, whereas control groups received an equal volume of DMSO.
BioLegend, Cat. No. 422301 or Mouse TruStain FcX™, BioLegend, Cat. No. 101319) for 10 minutes at 4°C. For surface marker detection, cells were stained with fluorochrome-conjugated monoclonal antibodies in 96-well V-bottom plates and incubated on ice for 30 minutes. After staining, cells were washed twice and resuspended in FACS buffer for analysis.
Prior to intracellular cytokine staining, cells were restimulated for 4 hours with PMA (Absin, Cat. No. abs9107), ionomycin (Sigma-Aldrich, Cat. No. I0634), and brefeldin A (MedChemExpress, Cat. No. HY-16592). For intracellular cytokine staining, cells were first surface-stained as described above, then fixed and permeabilized using the BD Cytofix/Cytoperm™ kit (BD Biosciences, Cat. No. 554714) according to the manufacturer ’s protocol. Intracellular proteins were stained with directly conjugated antibodies targeting IL-9, IL-17a, IL-4, IFN-γ, TNF-α, FOXP3, p-ZAP70, Perforin, and […]

## anteiso-C15 Leu7 surfactin [EpA]
Th9 cells [1]
  Th9 polarization in screen: most potent enhancer of Th9 polarization
Th9 cells [2]; EpA 1 μM
  IL-9+ Th9 differentiation: 49.4 and 48.8 and 36.1 and 37.3 and 36.5 and 50.3
Th9 cells [2]; EpA 10 μM
  IL-9+ Th9 differentiation: 82.5 and 80.4 and 79.9 and 77.4 (2×) and 76.3
Th9 cells [2]; EpA 20 μM
  IL-9+ Th9 differentiation: 52.4 and 52.2 and 48.1 and 34.8 and 36 and 37.3
Th9 cells [2]; increasing concentrations of EpA
  concentration at which IL-9 expression peaked: 10 µM
